{
  "source": "patent US12569503B2",
  "about": "“Methods and compositions for substituted axially-chiral cannabinol analogs” (University of Florida Research Foundation, Inc., priority 2019, dated 2026)",
  "key": {"mice [1]": {"system": "mice", "assay": "Acute thermal antinociception (tail-flick, modified tetrad assay)", "type": "in vivo", "details": "THC 10-56 mg/kg, ax-CBN 56-320 mg/kg"}, "mice [2]": {"system": "mice", "assay": "Locomotion measured as ambulatory time (modified tetrad assay)", "type": "in vivo", "details": "for Locomotion (in words): modified tetrad assay, THC 10-56 mg/kg, ax-CBN 56-320 mg/kg"}, "C57bl/6j mice": {"system": "C57bl/6j mice", "assay": "Reduction of body temperature (hypothermia)", "details": "for Effect on body temperature (in words): mice, THC 10-56 mg/kg, ax-CBN 56-320 mg/kg"}, "cannabinoid receptors": {"molecular_target": "cannabinoid receptors", "details": "in a variety of studies, cited from earlier work"}, "[3]": {"assay": "Locomotion measured as ambulatory time (modified tetrad assay)", "type": "in vivo, mice", "details": "C57bl/6j, mouse, in vivo; Table 4; read-out: Hypolocomotion ED50 ((95% CL)"}, "[4]": {"assay": "Reduction of body temperature (hypothermia)", "details": "C57bl/6j, mouse, in vivo, Body Temp. ED50 ((95% CL) mg/kg), Table 4; hypothermia"}, "[5]": {"system": "mice trained to discriminate 10 mg/kg THC", "details": "rimonabant 0.32 and 1 mg/kg versus vehicle; cited from earlier work"}},
  "note": "“Also recorded” adds a separate entry of the source.",
  "data": [
    {"compound": "10-methyl-CBN [ax-CBN]", "values": [
      {"measurement": "Acute thermal antinociception (in words)", "setting": "mice [1]", "result": "dose-relatedly produced thermal antinociception"},
      {"measurement": "Hypolocomotion ED50 ((95% CL)", "setting": "mice [2]; Table 4", "result": 290.20, "unit": "mg/kg"},
      {"measurement": "Locomotion (in words)", "setting": "mice [2]", "result": "decreased locomotion"},
      {"measurement": "Body Temp. ED50 ((95% CL)", "setting": "C57bl/6j mice; Table 4, hypothermia", "result": 308.98, "unit": "mg/kg"},
      {"measurement": "Effect on body temperature (in words)", "setting": "C57bl/6j mice", "result": "hypothermia"}
    ]},
    {"compound": "CCCCCc1cc(O)c2c(c1)OC(C)(C)c1ccc(C)cc1-2", "note": "[CBN, cannabinol]", "values": [
      {"measurement": "Binding affinity for cannabinoid receptors", "setting": "cannabinoid receptors", "result": "significantly higher"}
    ]},
    {"compound": "CCCCCc1cc(O)c2c(c1)OC(C)(C)[C@@H]1CCC(C)=C[C@@H]21", "note": "[THC, (−)-trans-Δ^9-tetrahydrocannabinol]", "values": [
      {"measurement": "Acute thermal antinociception (in words)", "setting": "mice [1]", "result": "dose-relatedly produced thermal antinociception"},
      {"measurement": "ED50", "setting": "[3]", "result": 25.5, "unit": "mg/kg"},
      {"measurement": "Locomotion (in words)", "setting": "mice [2]", "result": "decreased locomotion"},
      {"measurement": "Ki", "setting": "cannabinoid receptors; read-out: Binding affinity for cannabinoid receptors", "result": "20 to 40", "unit": "nM"},
      {"measurement": "Effect on body temperature (in words)", "setting": "C57bl/6j mice", "result": "robust depression of body temperature; also recorded: hypothermia"},
      {"measurement": "ED50", "setting": "[4]", "result": 17.5, "unit": "mg/kg"}
    ]},
    {"compound": "Cc1c(C(=O)NN2CCCCC2)nn(-c2ccc(Cl)cc2Cl)c1-c1ccc(Cl)cc1", "note": "[rimonabant]", "values": [
      {"measurement": "Effect on THC dose effect in drug discrimination (in words)", "setting": "[5]", "result": "antagonizes the dose effect of THC"}
    ]}
  ]
}
